In patent US12581252B2, “Substituted pyrrolo[3,4-b]pyridines as PI3K-α inhibitors” (Relay Therapeutics, Inc., priority 2020, dated 2026):

What was measured:
H1047R PIK3CA enzyme = H1047R PIK3CA enzyme (Homo sapiens, UniProt P42336, H1047R); assay: ADP-Glo Biochemical PIK3CA Kinase Assay
cells = details: Homo sapiens, MCF-10A, read-out: MCF10A IC50

Sequence of H1047R PIK3CA enzyme (P42336 whole entry H1047R): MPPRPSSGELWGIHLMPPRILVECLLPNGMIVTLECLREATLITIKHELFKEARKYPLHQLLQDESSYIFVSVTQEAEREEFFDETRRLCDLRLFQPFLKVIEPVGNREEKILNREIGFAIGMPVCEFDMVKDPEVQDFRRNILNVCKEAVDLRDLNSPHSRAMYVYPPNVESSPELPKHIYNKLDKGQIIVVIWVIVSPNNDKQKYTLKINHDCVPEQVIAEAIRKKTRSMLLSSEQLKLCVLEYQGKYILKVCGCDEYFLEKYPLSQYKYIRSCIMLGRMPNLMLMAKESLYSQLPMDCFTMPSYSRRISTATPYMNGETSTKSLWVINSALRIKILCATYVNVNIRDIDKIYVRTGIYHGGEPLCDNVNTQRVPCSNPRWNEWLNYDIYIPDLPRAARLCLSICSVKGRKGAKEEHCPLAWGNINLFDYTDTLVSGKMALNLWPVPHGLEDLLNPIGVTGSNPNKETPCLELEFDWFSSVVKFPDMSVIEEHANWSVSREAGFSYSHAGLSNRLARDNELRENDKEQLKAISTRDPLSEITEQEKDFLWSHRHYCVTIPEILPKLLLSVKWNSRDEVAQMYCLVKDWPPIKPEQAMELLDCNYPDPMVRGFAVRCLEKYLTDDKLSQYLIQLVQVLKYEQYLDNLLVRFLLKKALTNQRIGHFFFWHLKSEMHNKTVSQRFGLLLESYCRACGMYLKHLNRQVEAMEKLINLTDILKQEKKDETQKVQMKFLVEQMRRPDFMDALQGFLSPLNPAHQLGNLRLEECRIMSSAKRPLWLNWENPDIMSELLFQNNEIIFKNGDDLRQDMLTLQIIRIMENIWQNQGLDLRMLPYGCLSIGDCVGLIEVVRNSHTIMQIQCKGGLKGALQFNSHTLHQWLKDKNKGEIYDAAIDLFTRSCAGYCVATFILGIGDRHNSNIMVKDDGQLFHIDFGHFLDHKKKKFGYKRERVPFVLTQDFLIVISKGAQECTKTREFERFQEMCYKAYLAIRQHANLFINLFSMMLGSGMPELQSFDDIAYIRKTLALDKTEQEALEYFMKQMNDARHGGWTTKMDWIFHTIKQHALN
Sequence of H1047R PIK3CA enzyme (P27986 whole entry partner): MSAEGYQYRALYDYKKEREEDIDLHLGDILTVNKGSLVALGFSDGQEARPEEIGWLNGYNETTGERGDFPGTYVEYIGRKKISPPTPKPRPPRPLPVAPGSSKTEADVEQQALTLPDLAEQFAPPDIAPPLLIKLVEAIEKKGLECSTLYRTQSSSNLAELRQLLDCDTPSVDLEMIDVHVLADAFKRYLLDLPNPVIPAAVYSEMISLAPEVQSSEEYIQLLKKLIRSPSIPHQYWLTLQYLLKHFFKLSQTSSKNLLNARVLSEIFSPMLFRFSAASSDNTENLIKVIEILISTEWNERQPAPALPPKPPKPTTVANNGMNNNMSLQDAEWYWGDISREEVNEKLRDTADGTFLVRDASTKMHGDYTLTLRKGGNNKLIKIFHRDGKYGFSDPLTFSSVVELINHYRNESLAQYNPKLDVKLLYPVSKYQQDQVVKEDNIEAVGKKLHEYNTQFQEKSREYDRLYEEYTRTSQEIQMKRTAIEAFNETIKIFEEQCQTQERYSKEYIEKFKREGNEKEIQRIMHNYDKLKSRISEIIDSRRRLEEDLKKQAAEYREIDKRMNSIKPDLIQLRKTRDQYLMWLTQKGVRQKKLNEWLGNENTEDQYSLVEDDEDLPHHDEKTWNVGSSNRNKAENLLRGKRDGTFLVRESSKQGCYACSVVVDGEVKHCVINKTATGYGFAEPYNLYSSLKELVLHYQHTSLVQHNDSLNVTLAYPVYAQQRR

Row | SMILES | IC50 (H1047R PIK3CA enzyme) [nM] | IC50 (cells) [nM]
1 | Nc1cc(NC(=O)N2C[C@@H](O)c3cc(F)ccc32)c2c(c1)C(=O)N[C@@H]2c1cc(F)ccc1Cl (single isomer, unassigned) [Compound I-2410] | ≤ 100 | < 1000
2 | O=C(Nc1cc(-c2cn3ncnc3cn2)cc2c1[C@H](c1cc(F)ccc1Cl)NC2=O)c1cc(F)cc(C(F)(F)F)c1 [Compound I-1441] | ≤ 100 | < 1000
3 | O=C1NC(c2cc(F)ccc2Cl)c2c(NC(=O)N3CC(O)(C(F)(F)F)c4cc(F)ccc43)cc(Cl)cc21 (mixture of isomers) [Compound I-2482] | ≤ 100 | < 1000
4 | O=C1N[C@H](c2cc(F)ccc2Cl)c2c(NC(=O)N3C[C@H](O)c4c3ccc(F)c4F)cccc21 (single isomer, unassigned) [Compound I-2310] | ≤ 100 | < 1000
5 | O=C(Nc1cc(-c2ccc3ncnn3c2)cc2c1[C@H](c1cc(F)ccc1Cl)NC2=O)c1cc(F)cc(C(F)(F)F)c1 (single isomer, unassigned) [Compound I-945] | ≤ 100 | < 1000
6 | O=C(Nc1cc(-c2ccc3[nH]ncc3c2)cc2c1C(c1cc(F)ccc1Cl)NC2=O)c1cc(F)cc(C(F)(F)F)c1 (stereo not shown) [Compound I-1033] | ≤ 100 | < 1000
7 | Nc1cc(NC(=O)c2cc(F)cc(C(F)(F)F)c2)c2c(c1)C(=O)NC2c1cc(F)ccc1C(F)F (stereo not shown) [Compound I-289] | ≤ 100 | < 1000
8 | N#CCCc1cc(NC(=O)c2cc(F)cc(C(F)(F)F)c2)c2c(c1)C(=O)N[C@H]2c1cc(F)ccc1Cl (stereo in doubt) [Compound I-2169] | ≤ 100 | < 1000
9 | O=C(Nc1cc(-c2cnc3ccnn3c2)cc2c1C(c1cc(F)ccc1Cl)NC2=O)c1cc(F)cc(C(F)(F)F)c1 (stereo not shown) [Compound I-1047] | ≤ 100 | < 1000
10 | O=C(Nc1cc(-c2cnn(C3CC3)c2)cc2c1[C@H](c1cc(F)ccc1Cl)NC2=O)c1cc(F)cc(C(F)(F)F)c1 (single isomer, unassigned) [Compound I-1022] | ≤ 100 | < 1000
11 | O=C(Nc1cc(-c2cn3ncnc3cn2)cc2c1[C@H](c1cc(F)ccc1C(F)F)NC2=O)c1cc(F)cc(Cl)c1 (single isomer, unassigned) [Compound I-2259] | ≤ 100 | < 1000
12 | Cc1nc2ccc(-c3cc(NC(=O)c4cc(F)cc(C(F)(F)F)c4)c4c(c3)C(=O)NC4c3cc(F)ccc3Cl)cn2n1 (stereo not shown) [Compound I-1123] | ≤ 100 | < 1000
13 | Cc1ccccc1C1NC(=O)c2cc(N)cc(NC(=O)c3cc(F)cc(C(F)(F)F)c3)c21 (stereo not shown) [Compound I-40] | ≤ 100 | 1000 to 5000
14 | O=C(Nc1cc(-c2cnn(-c3ncccn3)c2)cc2c1C(c1cc(F)ccc1Cl)NC2=O)c1cc(F)cc(C(F)(F)F)c1 (stereo not shown) [Compound I-1418] | ≤ 100 | < 1000
15 | CC(C)(O)c1ncc(-c2cc(NC(=O)c3cc(F)cc(C(F)(F)F)c3)c3c(c2)C(=O)NC3c2cc(F)ccc2Cl)cn1 (stereo not shown) [Compound I-941] | 100 to 500 | < 1000
16 | O=C(Nc1cc(NC2=NC3(CC3)CO2)cc2c1C(c1cc(F)ccc1Cl)NC2=O)c1cc(F)cc(C(F)(F)F)c1 (stereo not shown) [Compound I-2359] | ≤ 100 | 1000 to 5000
17 | CS(=N)(=O)Cc1cc(NC(=O)c2cc(F)cc(C(F)(F)F)c2)c2c(c1)C(=O)NC2c1cc(F)ccc1Cl (stereo not shown) [Compound I-1018] | ≤ 100 | < 1000
18 | Cc1ccccc1C1NC(=O)c2cccc(NC(=O)N3CCc4ccccc43)c21 (stereo not shown) [Compound I-43, N-[3-(2-methylphenyl)-1-oxo-2,3-dihydro-1H-isoindol-4-yl]-2,3-dihydro-1H-indole-1-carboxamide] | ≤ 100 | 1000 to 5000
19 | Nc1cc(NC(=O)N2C[C@@H](O)c3ccccc32)c2c(c1)C(=O)N[C@H]2c1cc(F)ccc1Cl (single isomer, unassigned) [Compound I-2133] | ≤ 100 | < 1000
20 | O=C(Nc1cc(-c2ccc3ncnn3c2)cc2c1[C@@H](c1cc(Cl)ccc1Cl)NC2=O)c1cc(F)cc(C(F)(F)F)c1 [Compound I-1054] | ≤ 100 | < 1000
21 | Cn1nccc1Nc1cc(NC(=O)c2cc(F)cc(C(F)(F)F)c2)c2c(c1)C(=O)NC2c1cc(F)ccc1Cl (stereo not shown) [Compound I-922] | ≤ 100 | < 1000
22 | O=C(Nc1cc(-c2cccn3nccc23)cc2c1C(c1cc(F)ccc1Cl)NC2=O)c1cc(F)cc(C(F)(F)F)c1 (stereo not shown) [Compound I-983] | ≤ 100 | < 1000
23 | COCc1cc(NC(=O)c2nsc3ccccc23)c2c(c1)C(=O)NC2c1ccccc1C (stereo not shown) [Compound I-146, N-(6-(Methoxymethyl)-1-oxo-3-(o-tolyl)isoindolin-4-yl)benzo[d]isothiazole-3-carboxamide] | ≤ 100 | 5000 to 10000
24 | O=C1NC(c2cc(F)ccc2Cl)c2c(NC(=O)c3nsc4ccccc34)cc(Br)cc21 (stereo not shown) [Compound I-144] | ≤ 100 | 5000 to 10000
25 | O=C(Nc1cc(-c2cnsc2)cc2c1C(c1cc(F)ccc1Cl)NC2=O)c1cc(F)cc(C(F)(F)F)c1 (stereo not shown) [Compound I-1068] | ≤ 100 | < 1000

Row | SMILES | IC50 (H1047R PIK3CA enzyme) [nM] | IC50 (cells) [nM]
26 | O=C1N[C@@H](c2cc(F)ccc2Cl)c2c(NC(=O)N3C[C@](O)(C(F)(F)F)c4cc(F)ccc43)cc(C3COC3)cc21 (single isomer, unassigned) [Compound I-2655] | ≤ 100 | < 1000
27 | CC(O)c1cc(NC(=O)N2CC(O)c3ccccc32)c2c(c1)C(=O)NC2c1cc(F)ccc1Cl (stereo not shown) [Compound I-2288] | ≤ 100 | 10000 to 36000
28 | Cn1ccc(Nc2cc(NC(=O)c3cc(F)cc(C(F)(F)F)c3)c3c(c2)C(=O)N[C@H]3c2cc(F)ccc2Cl)n1 [Compound I-1071] | ≤ 100 | < 1000
29 | Cc1nc(Nc2cc(NC(=O)c3cc(F)cc(C(F)(F)F)c3)c3c(c2)C(=O)NC3c2cc(F)ccc2Cl)oc1C (stereo not shown) [Compound I-966] | ≤ 100 | < 1000
30 | Cc1[nH]ncc1Nc1cc(NC(=O)c2cc(F)cc(C(F)(F)F)c2)c2c(c1)C(=O)NC2c1cc(F)ccc1Cl (stereo not shown) [Compound I-1017] | ≤ 100 | < 1000
31 | O=C(Nc1cc(-c2c[nH]nn2)cc2c1C(c1cc(F)ccc1Cl)NC2=O)c1cc(F)cc(C(F)(F)F)c1 (stereo not shown) [Compound I-840] | ≤ 100 | < 1000
32 | N#Cc1cnn(Cc2cc(NC(=O)N3C[C@](O)(C(F)(F)F)c4cc(F)ccc43)c3c(c2)C(=O)N[C@@H]3c2cc(F)ccc2Cl)c1 (single isomer, unassigned) [Compound I-2669] | ≤ 100 | < 1000
33 | O=C(Nc1cc(-c2nc3cnccc3[nH]2)cc2c1C(c1cc(F)ccc1Cl)NC2=O)c1cc(F)cc(C(F)(F)F)c1 (stereo not shown) [Compound I-1025] | ≤ 100 | 1000 to 5000
34 | CC(C)(C)OC(=O)N1CC(n2cc(-c3cc(NC(=O)c4cc(F)cc(C(F)(F)F)c4)c4c(c3)C(=O)NC4c3cc(F)ccc3Cl)cn2)C1 (stereo not shown) [Compound I-944] | ≤ 100 | 5000 to 10000
35 | O=C(Nc1cc(-c2cncnc2)cc2c1C(c1cc(F)ccc1Cl)NC2=O)c1cc(F)cc(C(F)(F)F)c1 (stereo not shown) [Compound I-967] | ≤ 100 | < 1000
36 | O=C(Nc1cc(-c2ccc3ncnn3c2)cc2c1[C@H](c1cc(F)cc(F)c1Cl)NC2=O)c1cc(F)cc(C(F)(F)F)c1 (stereo in doubt) [Compound I-1062] | ≤ 100 | < 1000
37 | O=C(Nc1cc(-c2cncnc2)cc2c1[C@H](c1cc(F)ccc1Cl)NC2=O)c1cc(F)cc(C(F)(F)F)c1 [Compound I-1095] | ≤ 100 | < 1000
38 | O=C(Nc1cc(-c2cccc3cnccc23)cc2c1C(c1cc(F)ccc1Cl)NC2=O)c1cc(F)cc(C(F)(F)F)c1 (stereo not shown) [Compound I-902] | ≤ 100 | < 1000
39 | O=C(Nc1cc(CC2(O)CNC2)cc2c1C(c1cc(F)ccc1Cl)NC2=O)c1cc(F)cc(C(F)(F)F)c1 (stereo not shown) [Compound I-926] | ≤ 100 | 10000 to 36000
40 | N#CCc1cc(NC(=O)N2C[C@](O)(C(F)F)c3cc(F)ccc32)c2c(c1)C(=O)N[C@H]2c1cc(F)ccc1Cl (single isomer, unassigned) [Compound I-2601] | ≤ 100 | < 1000
41 | O=C(Nc1cc(-c2cccc3nonc23)cc2c1C(c1cc(F)ccc1Cl)NC2=O)c1cc(F)cc(C(F)(F)F)c1 (stereo not shown) [Compound I-1031] | ≤ 100 | < 1000
42 | O=C1N[C@@H](c2cc(F)ccc2Cl)c2c(NC(=O)c3csc4ccccc34)cc(-c3ccc4ncnn4c3)cc21 [Compound I-1684] | ≤ 100 | < 1000
43 | CC(C)(CN)n1cc(-c2cc(NC(=O)c3cc(F)cc(C(F)(F)F)c3)c3c(c2)C(=O)NC3c2cc(F)ccc2Cl)cn1 (stereo not shown) [Compound I-2186] | ≤ 100 | 1000 to 5000
44 | O=C(Nc1cc(-c2cccnc2)cc2c1[C@@H](c1cc(F)ccc1Cl)NC2=O)c1cc(F)cc(C(F)(F)F)c1 (stereo in doubt) [Compound I-1009] | ≤ 100 | < 1000
45 | Cn1cc(Nc2cc(NC(=O)c3cc(F)cc(C(F)(F)F)c3)c3c(c2)C(=O)NC3c2cc(F)ccc2Cl)cn1 (stereo not shown) [Compound I-917] | ≤ 100 | < 1000
46 | O=C1N[C@@H](c2cc(F)ccc2Cl)c2c(NC(=O)N3C[C@H](O)c4cc(F)ccc43)cc(-n3ccccc3=O)cc21 (single isomer, unassigned) [Compound I-2350] | ≤ 100 | 5000 to 10000
47 | O=C(Nc1cc(-c2nc3ccccc3[nH]2)cc2c1C(c1cc(F)ccc1Cl)NC2=O)c1cc(F)cc(C(F)(F)F)c1 (stereo not shown) [Compound I-1101] | ≤ 100 | < 1000
48 | O=C(Nc1cc(-c2n[nH]c3ccccc23)cc2c1C(c1cc(F)ccc1Cl)NC2=O)c1cc(F)cc(C(F)(F)F)c1 (stereo not shown) [Compound I-937] | 100 to 500 | 1000 to 5000
49 | O=C1N[C@@H](c2cccc(F)c2F)c2c(NC(=O)c3csc4ccccc34)ccnc21 [Compound I-22] | 500 to 1000 | 1000 to 5000
50 | O=C1N[C@H](c2ccccc2Cl)c2c(NC(=O)N3C[C@@](O)(C(F)(F)F)c4cc(F)ccc43)cccc21 (single isomer, unassigned) [Compound I-2688] | ≤ 100 | < 1000
